From patent publication US10640492B2, “Tubulin inhibitor” (SHENZHEN NEPTUNUS PHARMACEUTICAL RESEARCH INSTITUTE CO., …, priority 2016, dated 2020)
pIC50: −log10 of the molar value.

Tests used:
neutrophil count = conditions: rat, in vivo
From the text: Multiple doses of different drugs were administrated to the nude mice respectively and the potency of the drugs in inhibiting the transplanted tumor in the nude mice was investigated. Base on the investigation, the equivalent dose of each drug was identified and converted to rat dose before administrated to the rats. That is, by administrating the rats with relatively equivalent pharmacodynamic dose, the effect of the drugs on the neutrophil count was examined. After continuously administration for two weeks, blood samples were collected and neutrophil counts were measured (FIG. 3).

[1] = system: HT-1080 human fibrosarcoma cell strain
Procedure: (§1) To test the cytotoxic IC50 values of 14 candidate compounds against 5 cell strains (MDA-MB-231, HT-1080, AGS, A-673 & HUVEC) using a CCK-8 test kit.
(§2) a) The compound was serially diluted with DMSO starting from 0.5 μM, using twice echelon dilution.
(§3) The logarithmic growth phase cells were collected and counted. The cells were re-suspended in complete medium, whose concentration was adjusted according to the test results of the cell density optimization, and then seeded into 96-well plates with 100 μl of the cell suspension to each well. The cells were incubated in a 37° C., 100% relative humidity, 5% CO2 incubator for 24 hours.
(§4) b) The test compound was diluted with the medium to the corresponding action concentrations set up, and added into the cells in the plates at 25 μl/well. The test compound was prepared in 9 final action concentrations, which were obtained by sequentially diluted from 500 nM using twice echelon dilution.
(§5) c) The cells were incubated in a 37° C., 100% relative humidity, 5% CO2 incubator for 72 hours.
(§6) d) The medium was removed from the cells, and a complete medium containing 10% CCK-8 was added and incubated in a 37° C. incubator for 1-4 hours.
(§7) e) After gentle shaking, the absorbance at 450 nm of the sample was measured on a SpectraMax M5 Microplate Reader, and the inhibition ratio was calculated using the absorbance at 650 nm as reference.
(§8) The inhibition ratio of the drug on tumor cell growth was calculated as follows: tumor cell growth inhibition %=[(Ac−As)/(Ac−Ab)]×100%
(§9) The IC50 curve was fitted and the IC50 value was calculated using the software Graphpad Prism 5 and using the calculation formula log(inhibitor) vs. normalized response-variable slope or log(inhibitor) vs. response-variable slope.

[2] = system: AGS human gastric adenocarcinoma cell strain
Procedure: AGS human gastric adenocarcinoma cell strain (purchased from Shanghai Cell Resource Center, Chinese Academy of Sciences)
as §2, §3, §4, §5, §6, §7, §8, §9

[3] = system: HUVEC human umbilical vein endothelial cell strain
Procedure: HUVEC human umbilical vein endothelial cell strain (purchased from ScienCell Research Laboratories, Cat #8000, Lot #11233)
as §2, §3, §4, §5, §6, §7, §8, §9

[4] = system: MDA-MB-231 human breast cancer cell strain
Procedure: as §1
MDA-MB-231 human breast cancer cell strain (purchased from Shanghai Cell Resource Center, Chinese Academy of Sciences)
as §2, §3, §4, §5, §6, §7, §8, §9

[5] = system: drug-resistant MES-SA cells (p-glycoprotein induced); assay: Inhibitory effect on tumor proliferation, drug-resistant MES-SA transplanted tumor; assay type: in vivo; conditions: drug-resistant MES-SA nude mice, dose that does not reduce body weight, vs blank vehicle (FIG. 1)
Procedure: MES-SA cells (derived from ATCC) were cultured in low concentration of adriamycin for a long time to maintain sufficient cell viability and induced the expression of p-glycoprotein. After culturing for 10 months, the results of induced expression were detected by WB. After successful induction, the cells were cultured for one week in adriamycin-free medium. The tumor cells with adjusted concentration were inoculated into the armpit of nude mice. The transplanted tumors were treated with different drugs when they grew to a certain volume. Different doses of different drugs were administrated to blank mice to explore the drug dose not affecting the body weight of the animals, namely the dose to be administrated to treat the animals with transplanted tumors.

[6] = system: A-673 human rhabdomyosarcoma cell strain
Procedure: as §1, §2, §3, §4, §5, §6, §7, §8, §9

[7] = system: blood flow distribution in tissues and tumor tissue; assay: Blood flow distribution of tissues and tumor; assay type: in vivo, nude mice; conditions: two hours after administration, same pharmacodynamic dose, vs blank vehicle
From the text: In this example, the effects of drugs on blood flow distribution of different tissues and organs at the same pharmacodynamic dose were simultaneously tested.

[8] = Stability investigation (10-day accelerated stress testing)
Procedure: The tested conditions included 40° C., 60° C., humidity 75%, humidity 92.5%, and light. And under each condition, moisture, purity, maximum single impurity and total impurity of the compound tested were compared to that of day 0.

For `C=CC(C)(C)c1[nH]cnc1/C=C1\NC(=O)[C@H](Cc2ccccc2)NC1=O` [(−)phenylahistin, reference compound], the neutrophil count (neutrophil count) was “significantly lower than blank vehicle group”, the pIC50 [1] was less than 6.22 and the pIC50 [2] was less than 6.22. For the same compound, the pIC50 [3] was less than 6.22, the pIC50 [4] was less than 6.22 and the “anti-tumor proliferation effect (tumor weight)” value [5] was “almost had no effect against tumor proliferation”. The pIC50 [6] was less than 6.22, the “distribution of blood flow in tissues except tumor tissues” value [7] was “did not significantly affect the distribution of blood flow in tissues except tumor tissues” and the “intratumoral blood flow distribution” value [7] was “can significantly reduce the intratumoral blood flow distribution”. For the same compound, the Content ([8]; 40° C., day 5) was 97.86%, the Maximum single impurity ([8]; 40° C., day 5) was 0.73 RRT: 0.58) % and the Content ([8]; 40° C., day 10) was 98.36%. The Maximum single impurity ([8]; 40° C., day 10) was 1.22 (RRT: 0.58) %, the Content ([8]; 60° C., day 5) was 95.77% and the Maximum single impurity ([8]; 60° C., day 5) was 2.84 (RRT: 0.24) %. For the same compound, the Content ([8]; 60° C., day 10) was 93.45%, the Maximum single impurity ([8]; 60° C., day 10) was 3.97 (RRT: 0.24) % and the Content ([8]; Day 0) was 99.37%. For the same compound, the Maximum single impurity ([8]; Day 0) was 0.39 (RRT: 0.58) %.
